Calls of active or inactive are those of the source. The rule behind the calls is not given here.
Key:
[1] = mouse, microsomes
Description: Metabolic stability in mouse microsomes assessed as intrinsic clearance

[2] = human, microsomes
[3] = rat, microsomes
Mus musculus = experiment: Reduction in blood glucose excursion in ICR mouse at 30 mg/kg, po administered 30 mins prior to glucose challenge by glucose tolerance test; format: functional, organism-based; set-up: dose 30 mg/kg
Rattus norvegicus = experiment: Inhibition of DPP4 in po dosed Sprague-Dawley rat plasma; format: functional

Row | Compound | CL [1] | CL [2] | CL [3] | Activity (Mus musculus) | Activity (Rattus norvegicus) | ED50 (Rattus norvegicus; read-out: ID50 (the source's name))
1 | COCCOc1ccc2nc(C3(NC(=O)C[C@H](N)Cc4cc(Cl)ccc4F)CCS(=O)(=O)CC3)sc2c1 | 33 µL/min/mg | 63.8 µL/min/mg | 31.5 µL/min/mg | – | – | –
2 | N[C@@H](CC(=O)NC1(c2nc3ccccc3s2)CCS(=O)(=O)CC1)Cc1cc(F)c(F)cc1F | – | 39.9 µL/min/mg | 64.4 µL/min/mg | – | – | –
3 | COCCOc1ccc2nc(C3(NC(=O)C[C@H](N)Cc4cc(Cl)ccc4F)CCOCC3)sc2c1 | 28.6 µL/min/mg | 34.2 µL/min/mg | 98.1 µL/min/mg | – | – | –
4 | N[C@@H](CC(=O)NC1(c2nc3ccccc3s2)CCS(=O)(=O)CC1)Cc1ccccc1F | – | 34.6 µL/min/mg | 73.4 µL/min/mg | – | – | –
5 | COCCOc1ccc2nc(C3(NC(=O)C[C@H](N)Cc4cc(F)c(F)cc4F)CCOCC3)sc2c1 | 22.1 µL/min/mg | 21.9 µL/min/mg | 49.6 µL/min/mg | Active | Dose-dependent effect | 2.7 mg/kg
6 | COc1ccc2nc(C3(NC(=O)C[C@H](N)Cc4ccccc4F)CCS(=O)(=O)CC3)sc2c1 | – | 26.2 µL/min/mg | 51.5 µL/min/mg | – | – | –
7 | C[C@]12CC[C@H]3[C@@H](CCC4=CC(=O)CC[C@@]43C)[C@@H]1CC[C@@H]2O [TESTOSTERONE] | 312.6 µL/min/mg | 109.3 µL/min/mg | 375.6 µL/min/mg | – | – | –
8 | COCCOc1ccc2nc(C3(NC(=O)C[C@H](N)Cc4cc(F)c(F)cc4F)CCS(=O)(=O)CC3)sc2c1 | 34.1 µL/min/mg | 46.6 µL/min/mg | 21.9 µL/min/mg | – | – | –
9 | COc1ccc2nc(C3(NC(=O)C[C@H](N)Cc4cc(F)c(F)cc4F)CCS(=O)(=O)CC3)sc2c1 | – | 32.3 µL/min/mg | 42.3 µL/min/mg | – | – | –
10 | N[C@@H](CC(=O)NC1(c2nc3ccc(OCCN4CCOCC4)cc3s2)CCS(=O)(=O)CC1)Cc1cc(F)c(F)cc1F | 34.5 µL/min/mg | 92.8 µL/min/mg | 26 µL/min/mg | – | – | –
